Reference: US8058510B2, “Method and means to modulate programmed cell death in eukaryotic cells” (Bayer Bioscience N.V., priority 1998, dated 2011)
Entries after “also recorded” stand apart in the source; their conditions may differ.

B1: APP: NAP protein of Arabidopsis thaliana (SEQ ID No 6), non-conventional PARP, expressed in yeast (protein, listed as Arabidopsis thaliana)
chain: MANKLKVDELRLKLAERGLSTTGVKAVLVERLEEAIAEDTKKEESKSKRKRNSSNDTYESNKLIAIGEFRGMIVKELREEAIKRGLDTTGTKKDLLERLCNDANNVSNAPVKSSNGTDEAEDDNNGFEEEKKEEKIVTATKKGAAVLDQWIPDEIKSQYHVLQRGDDVYDAILNQTNVRDNNNKFFVLQVLESDSKKTYMVYTRWGRVGVKGQSKLDGPYDSWDRAIEIFTNKFNDKTKNYWSDRKEFIPHPKSYTWLEMDYGKEENDSPVNNDIPSSSSEVKPEQSKLDTRVAKFISLICNVSMMAQHMMEIGYNANKLPLGKISKSTISKGYEVLKRISEVIDRYDRTRLEELSGEFYTVIPHDFGFKKMSQFVIDTPQKLKQKIEMVEALGEIELATKLLSVDPGLQDDPLYYHYQQLNCGLTPVGNDSEEFSMVANYMENTHAKTHSGYTVEIAQLFRASRAVEADRFQQFSSSKNRMLLWHGSRLTNWAGILSQGLRIAPPEAPVTGYMFGKGVYFADMFSKSANYCYANTGANDGVLLLCEVALGDMNELLYSDYNADNLPPGKLSTKGVGKTAPNPSEAQTLEDGVVVPLGKPVERSCSKGMLLYNEYIVYNVEQIKMRYVIQVKFNYKH

Columns and labels:
tobacco = conditions: Puchta et al., 1995; cited from earlier work
[1] = system: differentiating cells of Zinnia or of Helianthus tuberosum; conditions: literature; cited from earlier work
APP [2] = biological target: T1, APP (Arabidopsis thaliana, UniProt Q11207); assay: Poly(ADP-ribose) polymerase activity assay in total protein extracts of yeast expressing APP
APP [3] = biological target: T1, APP; assay: In situ detection of poly(ADP-ribose) polymer with 10H monoclonal antibody in yeast spheroplasts expressing APP; format: cell-based; set-up: The full-length app cDNA was placed in pYeDP1/8-2 under the control of a galactose-inducible yeast promoter; expressed in transfected cells; host or cells: Saccharomyces cerevisiae strain DY transformed with pV8SPA, grown on galactose; conditions: DY(pV8SPA) cells grown on galactose in the presence of the inhibitor
Method: In situ antigen localization in yeast cells was carried out as described (Harlow and Lane, 1988). For the localization of the APP protein in yeast spheroplasts, anti-APP serum was diluted 1:3,000 to 1:5,000 in Tris-buffered saline-BSA buffer. 10H monoclonal antibody, which specifically recognizes poly(ADP-ribose) polymer (Ikajima et al., 1990) was used in a 1:100 dilution in PBS buffer. The mouse antibody were detected with the sheep anti-mouse IgG F(ab′)2 fragment conjugated to fluorescein isothiocyanate (FITC) (Sigma) at a dilution of 1:200. Rabbit IgG was detected with CY-3 conjugated sheep anti-rabbit IgG sheep F(ab)2 fragment (Sigma), at a dilution of 1:200. For the visualization of DNA, slides were incubated for 1 min in PBS with 10 μg ml^−1 of 4′,6-diamidino-2-phenylindole (DAPI; Sigma). Fluorescence imaging was performed on an Axioskop epifluorescence microscope (Zeiss, Jena, Germany). For observation of FITC and CY-3 fluorochromes, 23 and 15 filter cubes were used, respectively. Cells were photographed with Fuji Color-100 super plus film.
In addition, we tested whether APP was constitutively active in yeast cells, as has been reported for the human PARP (Collinge and Althaus, 1994). […] A positive yellowish-green fluorescence signal with 10H antibody was localized in the nucleus and was observed only in DY(pV8SPA) cells grown on galactose.

[4] = system: Arabidopsis shoots (C24; Columbia); assay: Fitness assay Arabidopsis (TTC-assay); format: in vivo; conditions: 2 mM niacinamide in incubation medium, about 20 hours; lines C24 and Columbia

Molecule	rates of homologous intrachromosomal recombination (tobacco)	development of tracheary elements [1]	synthesis of poly(ADP-ribose) (APP [2]; 3ABA 3 mM in the reaction mix, nucleic acid depleted DY(pV8SPA) extract, FIG. 5B lane 5)	radioactivity incorporated into polymer (APP [2]; yeast strain grown with 3ABA (3 mM) versus without, 3ABA removed from extracts during desalting, FIG. 5A lane 1 vs 2)	positive staining with 10H antibody (poly(ADP-ribose) polymers) in the nucleus (APP [3])	TTC-reducing capacity [4]	radioactivity incorporated into poly(ADP-ribose), 40 μg/ml DNA versus 2 μg/ml DNA (APP [2]; sonicated salmon sperm DNA, phosphor-image scanning, FIG. 5B lanes 4 and 2) [fold]
NC(=O)c1cccc(N)c1 [3ABA, 3-aminobenzamide]	increased	prevent development of tracheary elements	sensitive; also recorded: blocked	More radioactivity was incorporated into polymer	greatly reduced	–	–
O=c1[nH]c2ccccc2c2ccccc12 [6(5H)-phenasthridinone]	–	prevent development of tracheary elements	–	–	–	–	–
NC(=O)c1cccnc1 [nicotinamide]	–	prevent development of tracheary elements	–	–	greatly reduced	higher TTC-reducing capacity	–
B1	–	–	–	–	–	–	~6
